Measurements taken from patent publication US11882828B2, “Mosquito vector control compositions, methods and products utilizing same” (priority 2015, dated 2024).

Tests used:
[1] = test system: Anopheles stephensi (Indian malaria mosquito); assay: whole plant or invertebrate; conditions: Anopheles stephensi
Method: […] Once the deposits were dry, five non-blood fed adult female Anopheles stephensi (between two to five days old) were added to each well, and sustained with a 10% sucrose solution in a cotton wool plug. Assessment of the knockdown after 1 hour, and mortality after 48 hours was carried out.
(§1) In case of multiple tests, the mean value is reported.

Anopheles stephensi [2] = assay: Example B7: evaluation of insecticide impregnated polymer surfaces; type: in vivo; conditions: AI content 2 wt %, after one hour
Summary of the method: (§2)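 Methoxyacrylates were melt-blended into LDPE, HDPE or PP and moulded into sheets about 0.1 mm thick. Ten 3–5-day-old non-blood-fed adult females were held 24 h on 10% sucrose, then confined in a Petri dish under the treated sheet for 1 h. Knockdown was scored at 1 h and mortality 24 h after exposure.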

Aedes aegypti [3] = assay: as above; type: in vivo; conditions: AI content 2 wt %, polymer 4 to 6 weeks old, after one hour
Summary of the method: as §2

An. stephensi [4] = assay: Example B5: bottle based cross resistance study (CDC bottle assay); type: in vivo
An. Gambiae Tiassalé [5] = assay: as above; type: in vivo
An. Gambiae Kisumu sus [6] = assay: as above; type: in vivo
Anopheles stephensi [7] = assay: whole plant or invertebrate; conditions: Anopheles stephensi, 48 h
Summary of the method: (§3)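 Non-blood-fed adult females (2–5 days old), ten per well, were placed on dried ethanol deposits of the test compound at a defined concentration and fed 10% sucrose. Mortality was scored at 48 hours as the mean of two replicates.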

Aedes aegypti [8] = assay: whole plant or invertebrate; conditions: Aedes aegypti, 48 h
Summary of the method: as §3

[9] = test system: Aedes aegypti (Yellow fever mosquito); assay: whole plant or invertebrate; conditions: Aedes aegypti
Method: […] Once the deposits were dry, five non-blood fed adult female Aedes aegypti (between two to five days old) were added to each well, and sustained with a 10% sucrose solution in a cotton wool plug. Assessment of the knockdown after 1 hour, and mortality after 48 hours was carried out.
as §1

Ae. aegypti Caymon = assay: Example B4: cross resistance study, 6-well plate; type: in vivo
Method: (§4) In each study, a set of plates were infested with a known insecticide susceptible strain of mosquitoes from the same genera as the resistant strains.
(§5) Assessment of the knockdown after 60 minutes and mortality after 24 hours was carried out. Each treatment was replicated a minimum of four times, with the mean knockdown or mortality recorded.
(§6) A comparison of the knockdown and mortality of the resistant strain of mosquitoes was made to that of the susceptible to identify evidence of cross resistance.

An. Gambiae Kisumu rdl = assay: Example B4: cross resistance study, 6-well plate; type: in vivo
Method: as §4, §5, §6

An. Arabiensis Ndjamina = assay: Example B4: cross resistance study, 6-well plate; type: in vivo
Method: as §4, §5, §6

An. Arabiensis Moz sus = assay: Example B4: cross resistance study, 6-well plate; type: in vivo
Method: as §4, §5, §6

Ae. Aegypti New Orleans = assay: Example B4: cross resistance study, 6-well plate; type: in vivo
Method: as §4, §5, §6

An. stephensi [10] = assay: Example B4: cross resistance study, 6-well plate; type: in vivo
Method: as §4, §5, §6

An. Gambiae Tiassalé [11] = assay: Example B4: cross resistance study, 6-well plate; type: in vivo
Method: as §4, §5, §6

An. Gambiae Kisumu sus [12] = assay: Example B4: cross resistance study, 6-well plate; type: in vivo
Method: as §4, §5, §6

CO/C=C(/C(=O)OC)c1ccccc1Oc1nnc(C(F)(F)F)s1 [Compound 6, Methyl (E)-3-methoxy-2-[2-[[5-(trifluoromethyl)-1,3,4-thiadiazol-2-yl]oxy]phenyl]-prop-2-enoate]
pest or weed control at 20 ppm ([1]; 1 h, read-out: Knockdown): 100%
mortality at 20 ppm ([1]; 48 h): 100%
knock-down (Anopheles stephensi [2]; HDPE, polymer 4 to 6 weeks old): 87%
knock-down (Anopheles stephensi [2]; HDPE, polymer 6 to 8 weeks old): 100%
knock-down (Anopheles stephensi [2]; LDPE, polymer 4 to 6 weeks old): 97%
knock-down (Anopheles stephensi [2]; LDPE, polymer 6 to 8 weeks old): 100%
knock-down (Anopheles stephensi [2]; PP, polymer 4 to 6 weeks old): 100%
knock-down (Anopheles stephensi [2]; PP, polymer 6 to 8 weeks old): 90%
knock-down (Aedes aegypti [3]; HDPE): 87%
knock-down (Aedes aegypti [3]; LDPE): 100%
knock-down (Aedes aegypti [3]; PP): 83%
Knockdown (%) at 15 mins (An. stephensi [4]; 20 ppm, bottle, An. stephensi): 83%
Knockdown (%) at 60 mins (An. stephensi [4]; 20 ppm, bottle, An. stephensi): 100%
mortality at 20 ppm (An. stephensi [4]; Anopheles stephensi): 100%
Knockdown (%) at 15 mins (An. Gambiae Tiassalé [5]; 20 ppm, bottle, Tiassalé): 93%
Knockdown (%) at 60 mins (An. Gambiae Tiassalé [5]; 20 ppm, bottle, Tiassalé): 98%
mortality at 20 ppm (An. Gambiae Tiassalé [5]; Anopheles gambiae): 91%
Knockdown (%) at 15 mins (An. Gambiae Kisumu sus [6]; 20 ppm, bottle, Kisumu sus): 100%
Knockdown (%) at 60 mins (An. Gambiae Kisumu sus [6]; 20 ppm, bottle, Kisumu sus): 100%
mortality at 20 ppm (An. Gambiae Kisumu sus [6]; Anopheles gambiae): 100%
mortality at 5 ppm (Anopheles stephensi [7]): 98%
mortality at 5 ppm (Aedes aegypti [8]): 66%
pest or weed control at 20 ppm ([9]; 1 h, read-out: Knockdown): 100%
mortality at 20 ppm ([9]; 48 h): 100%
Knockdown (Ae. aegypti Caymon; 2.00 ppm, after 60 minutes, Caymon): 5%
mortality at 2 ppm (Ae. aegypti Caymon; Aedes aegypti, 24 h): 63%
Knockdown (An. Gambiae Kisumu rdl; 2.00 ppm, after 60 minutes, Kisumu rdl): 78%
mortality at 2 ppm (An. Gambiae Kisumu rdl; Anopheles gambiae, 24 h): 89%
Knockdown (An. Arabiensis Ndjamina; 2.00 ppm, after 60 minutes, Ndjamina): 100%
mortality at 2 ppm (An. Arabiensis Ndjamina; Anopheles arabiensis, 24 h): 100%
Knockdown (An. Arabiensis Moz sus; 2.00 ppm, after 60 minutes, Moz sus): 90%
mortality at 2 ppm (An. Arabiensis Moz sus; Anopheles arabiensis, 24 h): 100%
Knockdown (Ae. Aegypti New Orleans; 2.00 ppm, after 60 minutes, New Orleans): 95%
mortality at 2 ppm (Ae. Aegypti New Orleans; Aedes aegypti, 24 h): 100%
Knockdown (An. stephensi [10]; 2.00 ppm, after 60 minutes, An. stephensi): 100%
mortality at 2 ppm (An. stephensi [10]; Anopheles stephensi, 24 h): 100%
Knockdown (An. Gambiae Tiassalé [11]; 2.00 ppm, after 60 minutes, Tiassalé): 84%
mortality at 2 ppm (An. Gambiae Tiassalé [11]; Anopheles gambiae, 24 h): 94%
Knockdown (An. Gambiae Kisumu sus [12]; 2.00 ppm, after 60 minutes, Kisumu sus): 86%
mortality at 2 ppm (An. Gambiae Kisumu sus [12]; Anopheles gambiae, 24 h): 100%
